# System: total serum bilirubin (TSB)
# Test: Phase 2b trial: total serum bilirubin (TSB), adjusted and unadjusted, change from baseline
# Format: in vivo, human
# Parameters: total serum bilirubin / total serum bilirubin, Delta (change from baseline) / Change from baseline of total serum bilirubin: unit not given here
# Settings: for change from baseline in adjusted TSB, LS mean difference versus placebo, MMRM / change from baseline in adjusted TSB, LS means (SEM), MMRM: observed case
# Protocol: Three cohorts of subjects were recruited. This clinical study was designed to evaluate safety and efficacy parameters in each cohort.
# Scheduled assessments (including TSB) occurred before treatment and at 0.75 and 2 hours (or 1.5 and 3 hours, depending on PK blood sampling assignment); 6, 12, 24, 48, and 72 hours; and 14 and 30 (except TSB) days after treatment or early termination.
# The primary efficacy endpoint was the change in adjusted TSB from baseline to 48 hours after treatment. The adjusted TSB was a calculation of the percentage variance of the TSB level from the age specific threshold for PT initiation per the AAP Guidelines, i.e., an indication of the distance below the PT threshold by time.
# The Secondary Efficacy Endpoints were the change from baseline in unadjusted TSB at 48 hours after treatment, change from baseline in adjusted and unadjusted TSB at various other time points after treatment, percent change from baseline in unadjusted TSB, proportion of subjects who require PT/exchange transfusion (ET), time to PT/ET, duration of PT and time to hospital discharge.
# Intent-to-treat population (ITT): Defined as all subjects who were randomly assigned treatment in the clinical study, had received IMP, and had at least 1 post baseline TSB measurement during the first 48 hours after treatment. Subjects were summarized based on randomized treatment.
# Analysis of Efficacy Parameters: The primary efficacy analysis applied the analysis of covariance (ANCOVA) method to determine if there was a significant difference between treatment groups in change in adjusted TSB levels from baseline to 48 hours post baseline after controlling for the effects of gestational age and adjusted baseline TSB levels. If assumptions of ANCOVA appeared to be violated, a Wilcoxon rank-sum test could be performed instead. Time-to-event variables were analyzed using the Kaplan-Meier method, and Kaplan-Meier survival curves were presented.
# [1] = 4.5 mg/kg IM, 24 h, ITT, LOCF, ANCOVA
# [2] = 4.5 mg/kg IM, 48 h/early termination, ITT, LOCF
# [3] = 4.5 mg/kg IM, 48 h, ITT, LOCF, ANCOVA
# [4] = 4.5 mg/kg IM, 48 hours, intent to treat, preliminary data
# [5] = 4.5 mg/kg IM, 72 h, ITT, LOCF, ANCOVA
# [6] = 4.5 mg/kg IM, 14 days/early termination, ITT, LOCF
# [7] = 4.5 mg/kg IM, 14 days/early termination, ITT, LOCF, ANCOVA
# [8] = 4.5 mg/kg versus the placebo group, 48 Hours/Early termination, PP Population, ANCOVA
# [9] = 4.5 mg/kg, 48 Hours/Early termination, PP Population, LOCF
# [10] = 4.5 mg/kg, 6 hrs, unadjusted TSB, ITT Population
# [11] = 4.5 mg/kg, 12 hrs, unadjusted TSB, ITT Population
# [12] = 4.5 mg/kg, 24 hrs, unadjusted TSB, ITT Population
# [13] = 4.5 mg/kg, 48 hrs, unadjusted TSB, ITT Population
# [14] = 4.5 mg/kg, baseline, PP Population
# [15] = 4.5 mg/kg, baseline, unadjusted TSB, ITT Population
substance,measurement,setting,value
tin IV mesoporphyrin IX dichloride [Stannsoporfin],"change from baseline in adjusted TSB, Median","4.5 mg/kg IM, 24 h, ITT, LOCF",−11.15%
same,"change from baseline in unadjusted TSB, Mean (SD)","4.5 mg/kg IM, 24 h, ITT, LOCF",0.93 (1.990) mg/dL
same,"change from baseline in unadjusted TSB, Median","4.5 mg/kg IM, 24 h, ITT, LOCF",1.20 mg/dL
same,"unadjusted TSB, Mean (SD)","4.5 mg/kg IM, 24 h, ITT, LOCF",10.52 (2.668) mg/dL
same,"unadjusted TSB, Median","4.5 mg/kg IM, 24 h, ITT, LOCF",9.66 mg/dL
same,"change from baseline in adjusted TSB, LS mean (SEM)",[1],−11.59 (5.674) %
same,"change from baseline in adjusted TSB, LS mean difference versus placebo",[1],−11.50%
same,"change from baseline in unadjusted TSB, LS Mean (SEM)",[1],1.05 (0.665) mg/dL
same,"change from baseline in unadjusted TSB, LS Mean Difference versus placebo",[1],-1.70 mg/dL
same,"change from baseline in adjusted TSB, LS mean difference versus placebo, MMRM","4.5 mg/kg IM, 24 h, ITT",−14.70%
same,"change from baseline in adjusted TSB, LS means (SEM), MMRM","4.5 mg/kg IM, 24 h, ITT",−16.26 (5.495) %
same,"adjusted TSB, Mean (SD)",[2],−34.14 (14.733) %
same,"adjusted TSB, Median",[2],−32.00%
same,"change from baseline in adjusted TSB, Mean (SD)","4.5 mg/kg IM, 48 h, ITT, LOCF",−24.95 (19.261) %
same,"change from baseline in adjusted TSB, Median","4.5 mg/kg IM, 48 h, ITT, LOCF",−19.95%
same,"change from baseline in unadjusted TSB, Mean (SD)","4.5 mg/kg IM, 48 h, ITT, LOCF",0.80 (2.788) mg/dL
same,"change from baseline in unadjusted TSB, Median","4.5 mg/kg IM, 48 h, ITT, LOCF",1.45 mg/dL
same,"unadjusted TSB, Mean (SD)","4.5 mg/kg IM, 48 h, ITT, LOCF",10.39 (2.650) mg/dL
same,"unadjusted TSB, Median","4.5 mg/kg IM, 48 h, ITT, LOCF",10.35 mg/dL
same,"change from baseline in adjusted TSB, LS mean (SEM) (primary endpoint)",[3],−16.51 (6.925) %
same,"change from baseline in adjusted TSB, LS mean difference versus placebo",[3],−14.93%
same,"change from baseline in unadjusted TSB, LS Mean (SEM)",[3],1.60 (1.020) mg/dL
same,"change from baseline in unadjusted TSB, LS Mean Difference versus placebo",[3],-2.63 mg/dL
same,"change from baseline in adjusted TSB, LS mean (SEM) (primary endpoint)","4.5 mg/kg IM, 48 h, ITT, LOCF, ANCOVA, listed as stannsoporfin",16.5%
same,"change from baseline in adjusted TSB, LS mean difference versus placebo, MMRM","4.5 mg/kg IM, 48 h, ITT",−20.66%
same,"change from baseline in adjusted TSB, LS means (SEM), MMRM","4.5 mg/kg IM, 48 h, ITT",−27.34 (7.287) %
same,total serum bilirubin,[4],10.39 ± 2.7
same,"total serum bilirubin, Delta (change from baseline)",[4],0.80 ± 2.8
same,"total serum bilirubin, Delta (change from baseline)","4.5 mg/kg IM, 48 hours, treated per protocol, preliminary data",0.04 ± 3.1
same,"adjusted TSB, Mean (SD)","4.5 mg/kg IM, 72 h/early termination, ITT, LOCF",−38.38 (16.637) %
same,"change from baseline in adjusted TSB, Mean (SD)","4.5 mg/kg IM, 72 h, ITT, LOCF",−29.19 (19.225) %
same,"change from baseline in adjusted TSB, Median","4.5 mg/kg IM, 72 h, ITT, LOCF",−21.45%
same,"change from baseline in unadjusted TSB, Mean (SD)","4.5 mg/kg IM, 72 h, ITT, LOCF",0.15 (3.740) mg/dL
same,"change from baseline in unadjusted TSB, Median","4.5 mg/kg IM, 72 h, ITT, LOCF",1.90 mg/dL
same,"unadjusted TSB, Mean (SD)","4.5 mg/kg IM, 72 h, ITT, LOCF",9.73 (3.672) mg/dL
same,"unadjusted TSB, Median","4.5 mg/kg IM, 72 h, ITT, LOCF",11.15 mg/dL
same,"change from baseline in adjusted TSB, LS mean (SEM)",[5],−19.00 (8.184) %
same,"change from baseline in adjusted TSB, LS mean difference versus placebo",[5],−14.25%
same,"change from baseline in unadjusted TSB, LS Mean (SEM)",[5],1.38 (1.305) mg/dL
same,"change from baseline in unadjusted TSB, LS Mean Difference versus placebo",[5],-3.57 mg/dL
same,"change from baseline in unadjusted TSB, Mean (SD)",[6],−4.28 (3.828) mg/dL
same,"change from baseline in unadjusted TSB, Median",[6],-5.73 mg/dL
same,"unadjusted TSB, Mean (SD)",[6],5.31 (4.596) mg/dL
same,"unadjusted TSB, Median",[6],2.98 mg/dL
same,"change from baseline in unadjusted TSB, LS Mean (SEM)",[7],−3.02 (1.524) mg/dL
same,"change from baseline in unadjusted TSB, LS Mean Difference versus placebo",[7],-0.72 mg/dL
same,"48 Hours/Early termination change from baseline in unadjusted TSB, LS mean difference",[8],-2.82 mg/dL
same,"P-value of LS mean difference, change from baseline in unadjusted TSB",[8],0.030
same,"48 Hours/Early termination change from baseline in unadjusted TSB, Max",[9],3.6 mg/dL
same,"48 Hours/Early termination change from baseline in unadjusted TSB, Mean (SD)",[9],0.40 (3.111) mg/dL
same,"48 Hours/Early termination change from baseline in unadjusted TSB, Median",[9],0.70 mg/dL
same,"48 Hours/Early termination change from baseline in unadjusted TSB, Min",[9],-3.4 mg/dL
same,"48 Hours/Early termination unadjusted TSB, Max",[9],13.4 mg/dL
same,"48 Hours/Early termination unadjusted TSB, Mean (SD)",[9],9.88 (2.807) mg/dL
same,"48 Hours/Early termination unadjusted TSB, Median",[9],10.00 mg/dL
same,"48 Hours/Early termination unadjusted TSB, Min",[9],5.6 mg/dL
same,"48 Hours/Early termination change from baseline in unadjusted TSB, LS mean (SEM)","4.5 mg/kg, 48 Hours/Early termination, PP Population, LOCF, ANCOVA",1.11 (1.095) mg/dL
same,"6 hrs Percent Change from Baseline in TSB, Max",[10],26.4%
same,"6 hrs Percent Change from Baseline in TSB, Mean (SD)",[10],17.33 (5.373) %
same,"6 hrs Percent Change from Baseline in TSB, Min",[10],10.7%
same,"6 hrs TSB, Max",[10],14.8 mg/dL
same,"6 hrs TSB, Mean (SD)",[10],11.31 (2.237) mg/dL
same,"6 hrs TSB, Min",[10],7.6 mg/dL
same,"12 hrs Percent Change from Baseline in TSB, Max",[11],29.2%
same,"12 hrs Percent Change from Baseline in TSB, Mean (SD)",[11],20.16 (6.326) %
same,"12 hrs Percent Change from Baseline in TSB, Min",[11],9.8%
same,"12 hrs TSB, Max",[11],14.8 mg/dL
same,"12 hrs TSB, Mean (SD)",[11],11.54 (2.067) mg/dL
same,"12 hrs TSB, Min",[11],8.0 mg/dL
same,"24 hrs Percent Change from Baseline in TSB, Max",[12],43.8%
same,"24 hrs Percent Change from Baseline in TSB, Mean (SD)",[12],10.75 (23.016) %
same,"24 hrs Percent Change from Baseline in TSB, Median",[12],12.15%
same,"24 hrs Percent Change from Baseline in TSB, Min",[12],−14.8%
same,"24 hrs TSB, Max",[12],14.0 mg/dL
same,"24 hrs TSB, Mean (SD)",[12],10.52 (2.668) mg/dL
same,"24 hrs TSB, Min",[12],7.7 mg/dL
same,"48 hrs Percent Change from Baseline in TSB, Max",[13],56.3%
same,"48 hrs Percent Change from Baseline in TSB, Mean (SD)",[13],14.87 (33.167) %
same,"48 hrs Percent Change from Baseline in TSB, Min",[13],−37.7%
same,"48 hrs TSB, Max",[13],13.4 mg/dL
same,"48 hrs TSB, Mean (SD)",[13],10.69 (2.708) mg/dL
same,"48 hrs TSB, Min",[13],5.6 mg/dL
same,mean TSB levels,"4.5 mg/kg, 14 days after treatment (text, not LOCF table)",2.94 mg/dL
same,"Baseline unadjusted TSB, Max",[14],12.8 mg/dL
same,"Baseline unadjusted TSB, Mean (SD)",[14],9.47 (2.319) mg/dL
same,"Baseline unadjusted TSB, Median",[14],9.00 mg/dL
same,"Baseline unadjusted TSB, Min",[14],6.4 mg/dL
same,"Baseline TSB, Max",[15],12.8 mg/dL
same,"Baseline TSB, Mean (SD)",[15],9.59 (1.911) mg/dL
same,"Baseline TSB, Min",[15],6.4 mg/dL
same,time after administration at which an effect begins,"bilirubin levels, FIG. 7",6 to 12 h
